{"source": "PubChem BioAssay AID1259427", "about": "(Fisher Drug Discovery Resource Center, 2018)", "note": "The source made the active and inactive calls.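 Rule for the calls: active = EC50 at or below a set limit, with no effect in the paired counter-screen assay; inactive = the rest.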", "data": [{"target": "Aedes aegypti neuropeptide Y-like receptor 7 (NPYLR7)", "test": "NPYLR7 activation potency in cells – cell-based, Aedes aegypti, hit validation, mosquito biting behavior, confirmation (AID 1259427);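 note: potency of agonists that activate the receptor and raise the calcium signal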", "settings": "HEK293T NPYLR7/Galpha15/GCaMP6s, calcium fluorescence", "values": [{"compound": "C[C@@H](NC(=O)CN1Cc2ccc(N3CCOCC3)nc2C1=O)c1ccccc1", "EC50": "> 20 µM (inactive)"}, {"compound": "Cc1cc(O)c(CN2CCCCC2)c2c1C(=O)/C(=C/c1cc3ccccc3o1)O2", "EC50": "> 20 µM (inactive)"}, {"compound": "CCOC(=O)c1ccccc1-c1c2ccc(=N)cc-2oc2cc(N)ccc12", "EC50": "< 0.039 µM (inactive)"}, {"compound": "N#CC1C(=N)Oc2cc(O)ccc2C1c1ccccc1I", "note": "(stereo not drawn)", "EC50": "inactive"}, {"compound": "CCCc1[nH]n(-c2ccc(Cl)c(Cl)c2)c(=O)c1/C=C1\\NC(=O)N(Cc2ccc(C)cc2)C1=O", "EC50": "> 20 µM (inactive)"}, {"compound": "CCN1C(=Cc2ccc3cc(C)ccc3[n+]2CC)Sc2ccccc21", "EC50": "inactive"}, {"compound": "CCCc1nn2c(N)c(C=C3C=C(Cl)C(=O)C(Cl)=C3)c(=O)nc2s1", "EC50": "> 20 µM (inactive)"}, {"compound": "CCOC(=O)C1=C(C)NC(C)=C(C(=O)OCC)C1c1cc(Cl)ccc1OC(F)F", "EC50": "> 20 µM (inactive)"}, {"compound": "N#CC1C(=N)Oc2cc(N)ccc2C1c1c(Cl)cccc1Cl", "note": "(stereo not drawn)", "EC50": "> 20 µM (inactive)"}, {"compound": "Cc1ccc(NC2C=CS(=O)(=O)C2)cc1C", "note": "(stereo not drawn)", "EC50": "> 20 µM (inactive)"}, {"compound": "CCC(CO)[n+]1c(C)cc(C=C2Sc3ccccc3N2Cc2ccccc2)cc1C", "note": "(stereo not drawn)", "EC50": "9.8 µM"}, {"compound": "O=C(CN1C(=O)SC(=Cc2ccc(N3CCCCCC3)o2)C1=O)N1CCCCCC1", "EC50": "> 20 µM (inactive)"}, {"compound": "CCOC(=O)N1CCN(c2ccc(/C=C(\\C#N)c3nc4ccccc4n3C)o2)CC1", "EC50": "inactive"}, {"compound": "CCOc1ccc(C(=O)Nc2sc3c(c2-c2nc4ccccc4s2)CCN(C)C3)cc1", "EC50": "> 20 µM (inactive)"}, {"compound": "CCCS(=O)(=O)N1CCN=C1SCc1ccccc1C", "EC50": "> 20 µM (inactive)"}, {"compound": "COc1ccc2c(C)nc(N=C(N)N)nc2c1", "EC50": "19.6 µM"}, {"compound": "CCCN1CCc2c(sc3c2c(NC(CC)CO)nc2nnnn23)C1", "note": "(stereo not drawn)", "EC50": "> 20 µM (inactive)"}, {"compound": "C=CCNc1ccc2c3c(cccc13)C(=O)N(c1ccccc1)C2=O", "EC50": "inactive"}, {"compound": "Cc1ccc(OCCNC(=O)N2CCN(S(=O)(=O)c3ccccc3Cl)CC2)c(C)c1", "EC50": "> 20 µM (inactive)"}, {"compound": "CC1(C)OC2OC(C(O)c3cc(O)c4c(c3O)C(=O)c3ccccc3C4=O)C(C)(O)C2O1", "note": "(stereo not drawn)", "EC50": "inactive"}, {"compound": "COc1ccc2nc(C=Cc3cc(Br)c(O)c(OC)c3)sc2c1", "EC50": "> 20 µM (inactive)"}, {"compound": "CCOC(=O)c1nc2ccccc2nc1N1CCN(C(=O)N2CCOCC2)CC1", "EC50": "> 20 µM (inactive)"}, {"compound": "CNC[C@H](O)c1ccc(O)c(O)c1", "EC50": "inactive"}, {"compound": "Nc1c(S(=O)(=O)O)cc2c3c(cccc13)C(=O)N(CCO)C2=O", "EC50": "inactive"}, {"compound": "N#C/C(=C/c1ccc(N2CCCCCC2)o1)c1ccc(F)cc1", "EC50": "> 20 µM (inactive)"}, {"compound": "CC(C)CN1C(=O)C(=Cc2c(N3CCN(CCO)CC3)nc3ccccn3c2=O)SC1=S", "EC50": "> 20 µM (inactive)"}, {"compound": "CCOC(=O)C1CCCN(c2nc3nonc3nc2N2CCSCC2)C1", "note": "(stereo not drawn)", "EC50": "> 20 µM (inactive)"}, {"compound": "COc1ccccc1OCCCOc1ccc(Br)cc1Cl", "EC50": "> 20 µM (inactive)"}, {"compound": "COCCOc1ccc(NC(=O)N(C)C(C)C2(C)CC2)cn1", "note": "(stereo not drawn)", "EC50": "> 20 µM (inactive)"}, {"compound": "COc1cc(/C=C2\\SC(=S)N(C(C)C(=O)O)C2=O)ccc1O", "note": "(stereo not drawn)", "EC50": "inactive"}, {"compound": "CCN1CCc2c(sc(NC(=O)C3=COCCO3)c2-c2nc3ccccc3s2)C1", "EC50": "inactive"}, {"compound": "CC(=O)OC(C)C[N+](C)(C)C", "note": "(stereo not drawn)", "EC50": "> 20 µM (inactive)"}, {"compound": "N#C/C(=C\\c1ccc(O)c(O)c1)C(=O)NCc1ccccc1", "EC50": "> 20 µM (inactive)"}, {"compound": "NCCNc1ccc2c3c(cccc13)C(=O)N(c1ccc(Cl)cc1)C2=O", "EC50": "inactive"}, {"compound": "CC(C)c1nc(NC(=O)c2[nH]ncc2Br)n(C)n1", "EC50": "inactive"}, {"compound": "CCN(CC)c1ccc2cc(C(N)=O)/c(=N\\NC(N)=S)oc2c1", "EC50": "< 0.039 µM (inactive)"}, {"compound": "O=c1[nH]c(CCl)nc2sc3c(c12)CCN(Cc1ccccc1)C3", "EC50": "> 20 µM (inactive)"}, {"compound": "FC(F)(F)c1ccc(-c2nc3ccc(Cl)cn3c2NCc2ccccc2)cc1", "EC50": "> 20 µM (inactive)"}, {"compound": "COC(=O)c1cnc(/C=C/c2cc(C)c(O)c(C)c2)s1", "EC50": "> 20 µM (inactive)"}, {"compound": "COC(=O)C1CCN(S(=O)(=O)c2c(F)cc(F)cc2Br)CC1", "EC50": "> 20 µM (inactive)"}, {"compound": "O=c1[nH]c(SCCO)nc2sc3c(c12)CCCC3", "EC50": "> 20 µM (inactive)"}, {"compound": "CCN1CCN(Cc2c(O)cc(C)c3c2O/C(=C\\c2ccco2)C3=O)CC1", "EC50": "> 20 µM (inactive)"}, {"compound": "CCCCN(C)C1=CC2=CC(=C(C#N)C#N)CCC2CC1", "note": "(stereo not drawn)", "EC50": "< 0.039 µM (inactive)"}, {"compound": "CC(C(=O)O)N1C(=O)/C(=C\\c2ccc(O)cc2)SC1=S", "note": "(stereo not drawn)", "EC50": "> 20 µM (inactive)"}, {"compound": "Cc1cc(C=C2Sc3ccccc3N2C)cc(C)[n+]1-c1ccccc1", "EC50": "inactive"}, {"compound": "CNC(=O)c1cnc(/C=C/c2csc(-c3ccsc3)n2)[nH]c1=O", "EC50": "> 20 µM (inactive)"}, {"compound": "O[C@@H]1CN(Cc2ccncc2Cl)CC[C@H]1c1ccc2c(c1)OCO2", "EC50": "> 20 µM (inactive)"}, {"compound": "COc1cc(C=C(C#N)C(=O)OC(C)C)cc(Cl)c1O", "EC50": "> 20 µM (inactive)"}, {"compound": "CN1C(=S)N(c2ccc3c(c2)CCC3)C(=O)/C1=C\\c1ccncc1", "EC50": "> 20 µM (inactive)"}, {"compound": "NC(=O)CN1c2cccc3cccc(c23)S1(=O)=O", "EC50": "> 20 µM (inactive)"}, {"compound": "O=C(O)CSc1ccc2c3c(cccc13)C(=O)c1ccccc1-2", "EC50": "inactive"}, {"compound": "N#CC(C#N)=C1C=C2C=C(N3CCc4ccccc4C3)CCC2CC1", "note": "(stereo not drawn)", "EC50": "> 20 µM (inactive)"}, {"compound": "CN(Cc1ccccc1)C1=CC2=CC(=C(C#N)C#N)CCC2CC1", "note": "(stereo not drawn)", "EC50": "5.13 µM"}, {"compound": "C=CCN1C(=O)C(Cc2ccc(OC)cc2)S/C1=N/N=C\\c1cccs1", "note": "(stereo not drawn)", "EC50": "> 20 µM (inactive)"}, {"compound": "CCNC(=O)[C@H]1O[C@@H](n2cnc3c(N)ncnc32)C(O)[C@H]1O", "note": "(stereo partly drawn)", "EC50": "inactive"}, {"compound": "CCC(C)n1cc(/C=C2/C(=O)NC(=O)N(c3ccc4c(c3)OCO4)C2=O)c2ccccc21", "note": "(stereo not drawn)", "EC50": "> 20 µM (inactive)"}, {"compound": "O=C(O)CN1C(=O)/C(=C\\c2cc([N+](=O)[O-])cc(Br)c2O)SC1=S", "EC50": "inactive"}, {"compound": "O=[N+]([O-])c1cc(S(=O)(=O)Nc2cc(Cl)ccc2F)ccc1F", "EC50": "> 20 µM (inactive)"}, {"compound": "O=C1C(=Cc2ccc(OC(F)F)cc2OC(F)F)Oc2cc(O)ccc21", "EC50": "> 20 µM (inactive)"}, {"compound": "Nc1ncnc2c1ncn2[C@@H]1O[C@H](CO)[C@@H](O)[C@H]1O", "EC50": "inactive"}, {"compound": "COc1cc(/C=C/c2nc3ccccc3o2)cc(Cl)c1O", "EC50": "inactive"}, {"compound": "COc1ccc(C(=O)N(Cc2ccccc2)C2CCC(NC(=O)C3CCN(C(=O)c4ccccc4Cl)CC3)CC2)cc1", "note": "(stereo not drawn)", "EC50": "18 µM"}, {"compound": "CCc1nc(N=C(N)N)nc2cc(C)ccc12", "EC50": "7.66 µM"}, {"compound": "O=C1/C(=C/c2cc3ccccc3o2)Oc2c1ccc(O)c2CN1CCN(CCO)CC1", "EC50": "inactive"}, {"compound": "O=C(c1snc2c(=O)n(Cc3ccccc3)c(=O)[nH]c12)N1CCSCC1", "EC50": "> 20 µM (inactive)"}, {"compound": "CC(C)N=c1c([N+](=O)[O-])nn(-c2ccc(Cl)cc2)n1O", "EC50": "> 20 µM (inactive)"}, {"compound": "CCCc1ccccc1N1C(=O)CSC1c1ccc(NC(=O)CCl)cc1", "note": "(stereo not drawn)", "EC50": "> 20 µM (inactive)"}, {"compound": "CCN(CC)c1ccc(/C=C2/SC(=S)N(CC(=O)O)C2=O)cc1", "EC50": "inactive"}, {"compound": "N#CC(C#N)=C1C=C2C=C(N3CCCCC3)CCC2CC1", "note": "(stereo not drawn)", "EC50": "< 0.039 µM (inactive)"}, {"compound": "O=C1NC(c2ccc3c(c2)OCO3)C(C(=O)c2ccccc2)C(O)(C(F)(F)F)N1", "note": "(stereo not drawn)", "EC50": "> 20 µM (inactive)"}, {"compound": "N#CC(=Cc1c(F)c(F)c(F)c(F)c1F)c1ccccn1", "EC50": "> 20 µM (inactive)"}, {"compound": "O=C(NCCSc1ccc(Cl)cc1)c1ccc2c(=O)n3c(nc2c1)CCC3", "EC50": "> 20 µM (inactive)"}, {"compound": "COc1ccc(NC(=O)C2C=CCN2)cc1NC(=O)c1ccco1", "note": "(stereo not drawn)", "EC50": "> 20 µM (inactive)"}]}]}
